Measurements as given in patent US20250136578A1 (Kolm Therapeutics Inc., priority 2023, published 2025).

What was measured:
[1] = biological target: AR / CBP ternary complex (Homo sapiens, UniProt P10275+Q92793); assay: Ternary complex formation assay (sandwich ELISA, AR capture, CBP antibody detection) in VCaP cell lysates; assay type: cell-based; conditions: treated 1.5 hours, rabbit CBP or p300 antibody detection, average, read-out: Average Ternary Complex
Outline: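 VCaP cells in 5% charcoal-stripped FBS were cultured ≥3 days and then given bifunctional compound for 1.5 h. Lysates went onto AR-antibody-coated plates. Bound CBP (or p300) was detected with a rabbit antibody plus HRP anti-rabbit, using QuantaRed chemifluorescence (ex 570/em 585) read immediately, at 5 min and at 15 min.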

[2] = system: VCaP cells; assay: VCaP growth inhibition assay (CTG); assay type: cell-based; conditions: Homo sapiens, 216 h, 30 pM R1881, 9 days
Outline: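 VCaP cells in phenol red-free DMEM with 5% charcoal-stripped serum were stimulated with 30 pM R1881 (final) and treated with compound from 100 nM to 10 fM final (1:5 dilutions) for 9 days at 37 °C. Viability was read by CellTiter-Glo luminescence, and IC50 came from 4-parameter logistic fits.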

Chain of AR / CBP ternary complex (P10275 whole entry): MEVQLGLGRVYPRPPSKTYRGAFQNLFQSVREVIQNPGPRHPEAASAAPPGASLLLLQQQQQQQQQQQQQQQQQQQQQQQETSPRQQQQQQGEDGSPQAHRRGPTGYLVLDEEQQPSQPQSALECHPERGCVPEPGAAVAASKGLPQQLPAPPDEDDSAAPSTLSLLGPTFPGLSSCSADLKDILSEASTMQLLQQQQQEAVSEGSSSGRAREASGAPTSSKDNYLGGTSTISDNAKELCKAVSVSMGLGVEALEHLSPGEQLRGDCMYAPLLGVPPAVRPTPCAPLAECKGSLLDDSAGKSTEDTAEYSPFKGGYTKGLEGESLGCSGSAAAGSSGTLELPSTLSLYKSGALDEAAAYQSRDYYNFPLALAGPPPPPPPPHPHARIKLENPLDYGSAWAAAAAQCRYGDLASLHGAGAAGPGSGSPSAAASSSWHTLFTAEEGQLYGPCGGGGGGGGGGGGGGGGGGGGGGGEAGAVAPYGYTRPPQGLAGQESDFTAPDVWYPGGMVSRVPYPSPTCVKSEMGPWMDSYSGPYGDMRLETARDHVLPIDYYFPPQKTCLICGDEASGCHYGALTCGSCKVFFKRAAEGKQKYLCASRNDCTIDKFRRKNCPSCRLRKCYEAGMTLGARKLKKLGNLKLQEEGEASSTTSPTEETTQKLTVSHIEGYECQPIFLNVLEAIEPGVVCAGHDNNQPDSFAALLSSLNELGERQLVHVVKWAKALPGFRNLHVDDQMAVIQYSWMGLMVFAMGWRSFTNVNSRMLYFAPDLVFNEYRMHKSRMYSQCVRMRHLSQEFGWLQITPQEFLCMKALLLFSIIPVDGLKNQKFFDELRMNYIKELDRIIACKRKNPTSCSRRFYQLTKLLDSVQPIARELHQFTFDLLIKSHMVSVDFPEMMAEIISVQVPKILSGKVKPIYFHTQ
Chain of AR / CBP ternary complex (Q92793 2-2442): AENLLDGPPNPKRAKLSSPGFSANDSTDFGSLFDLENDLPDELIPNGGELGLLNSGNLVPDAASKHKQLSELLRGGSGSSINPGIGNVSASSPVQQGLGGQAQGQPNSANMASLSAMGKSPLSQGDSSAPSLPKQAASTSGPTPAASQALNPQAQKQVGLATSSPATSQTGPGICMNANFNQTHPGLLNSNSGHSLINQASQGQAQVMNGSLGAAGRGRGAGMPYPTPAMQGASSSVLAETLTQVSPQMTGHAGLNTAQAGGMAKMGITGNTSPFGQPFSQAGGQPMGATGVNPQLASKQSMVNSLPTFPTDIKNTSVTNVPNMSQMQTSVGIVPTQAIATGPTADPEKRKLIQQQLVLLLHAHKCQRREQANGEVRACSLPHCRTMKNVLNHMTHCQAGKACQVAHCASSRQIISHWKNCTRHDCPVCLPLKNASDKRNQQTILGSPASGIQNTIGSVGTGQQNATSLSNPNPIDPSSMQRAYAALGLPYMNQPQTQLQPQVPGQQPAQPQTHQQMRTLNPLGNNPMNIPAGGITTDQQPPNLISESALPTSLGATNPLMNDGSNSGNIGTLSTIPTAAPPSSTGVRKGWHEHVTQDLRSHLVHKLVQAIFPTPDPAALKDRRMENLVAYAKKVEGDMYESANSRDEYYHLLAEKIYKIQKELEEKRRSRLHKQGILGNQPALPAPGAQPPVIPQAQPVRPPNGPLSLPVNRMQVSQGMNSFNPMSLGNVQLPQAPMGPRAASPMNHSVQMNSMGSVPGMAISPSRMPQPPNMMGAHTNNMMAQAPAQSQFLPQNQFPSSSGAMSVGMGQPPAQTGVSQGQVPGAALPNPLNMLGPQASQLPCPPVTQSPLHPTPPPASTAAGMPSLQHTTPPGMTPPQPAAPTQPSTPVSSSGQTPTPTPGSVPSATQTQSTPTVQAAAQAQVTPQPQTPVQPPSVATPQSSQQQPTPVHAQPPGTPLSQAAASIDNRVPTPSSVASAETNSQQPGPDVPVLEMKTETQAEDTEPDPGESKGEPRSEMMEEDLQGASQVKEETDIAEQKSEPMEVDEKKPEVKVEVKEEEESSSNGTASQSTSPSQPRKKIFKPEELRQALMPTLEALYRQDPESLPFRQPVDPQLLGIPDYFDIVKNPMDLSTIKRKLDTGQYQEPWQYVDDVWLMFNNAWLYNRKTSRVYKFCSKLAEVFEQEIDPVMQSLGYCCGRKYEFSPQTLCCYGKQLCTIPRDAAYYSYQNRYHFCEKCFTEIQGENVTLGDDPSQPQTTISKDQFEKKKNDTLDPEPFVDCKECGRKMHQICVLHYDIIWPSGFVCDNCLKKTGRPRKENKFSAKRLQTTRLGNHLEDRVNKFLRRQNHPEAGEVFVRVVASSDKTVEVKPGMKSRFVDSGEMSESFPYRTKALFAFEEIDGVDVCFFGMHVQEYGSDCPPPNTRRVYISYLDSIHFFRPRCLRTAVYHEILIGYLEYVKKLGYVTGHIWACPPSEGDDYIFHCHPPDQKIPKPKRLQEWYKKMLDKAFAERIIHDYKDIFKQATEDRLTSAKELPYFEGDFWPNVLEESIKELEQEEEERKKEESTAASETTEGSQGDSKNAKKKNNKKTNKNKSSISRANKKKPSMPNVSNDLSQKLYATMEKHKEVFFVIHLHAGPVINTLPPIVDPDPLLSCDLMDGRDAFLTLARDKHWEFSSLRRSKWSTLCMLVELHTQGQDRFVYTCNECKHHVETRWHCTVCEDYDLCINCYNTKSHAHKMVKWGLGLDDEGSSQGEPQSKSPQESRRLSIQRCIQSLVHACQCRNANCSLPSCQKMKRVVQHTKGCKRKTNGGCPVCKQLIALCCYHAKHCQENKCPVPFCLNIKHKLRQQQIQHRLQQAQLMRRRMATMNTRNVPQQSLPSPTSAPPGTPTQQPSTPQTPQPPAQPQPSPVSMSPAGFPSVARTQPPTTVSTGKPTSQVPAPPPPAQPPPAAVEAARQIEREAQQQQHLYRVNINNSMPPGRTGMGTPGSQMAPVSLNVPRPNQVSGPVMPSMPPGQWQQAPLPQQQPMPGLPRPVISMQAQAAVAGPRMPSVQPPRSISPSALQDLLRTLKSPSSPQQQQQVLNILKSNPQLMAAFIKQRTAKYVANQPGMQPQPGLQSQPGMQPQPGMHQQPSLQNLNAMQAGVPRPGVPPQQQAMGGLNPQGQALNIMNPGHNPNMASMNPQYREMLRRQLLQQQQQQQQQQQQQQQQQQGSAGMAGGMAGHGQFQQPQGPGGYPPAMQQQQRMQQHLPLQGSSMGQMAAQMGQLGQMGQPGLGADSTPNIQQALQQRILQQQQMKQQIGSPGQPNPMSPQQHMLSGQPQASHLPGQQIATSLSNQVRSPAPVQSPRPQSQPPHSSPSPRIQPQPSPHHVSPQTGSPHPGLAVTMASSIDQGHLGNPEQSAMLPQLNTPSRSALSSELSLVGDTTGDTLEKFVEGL

| EC50 [1] | IC50 [2] | SMILES |
| --- | --- | --- |
| 1 to 10 nM | 1 to 100 nM | CC(=O)N1CCc2c(c(N3CCCc4cc(-c5cnn(C)c5)c(C(F)F)cc43)nn2C2CCN([C@H]3CCCN(c4ccc(C(=O)N[C@H]5CC[C@H](Oc6ccc(C#N)c(Cl)c6)CC5)nn4)C3)CC2)C1 [Compound 258, 6-[(3S)-3-[4-[5-acetyl-3-[7-(difluoromethyl)-6-(1-methylpyrazol-4-yl)-3,4-dihydro-2H-quinolin-1-yl]-6,7-dihydro-4H-pyrazolo[4,3-c]pyridin-1-yl]-1-piperidyl]-1-piperidyl]-N-[4-(3-chloro-4-cyano-phenoxy)cyclohexyl]pyridazine-3-carboxamide] |
| 1 to 10 nM | 1 to 100 nM | CC(=O)N1CCc2c(c(N3CCCc4cc(-c5cnn(C)c5)c(C(F)F)cc43)nn2C2CCN([C@@H]3CCCN(c4ccc(C(=O)N[C@H]5CC[C@H](Oc6ccc(C#N)c(Cl)c6)CC5)nn4)C3)CC2)C1 [Compound 259, 6-[(3R)-3-[4-[5-acetyl-3-[7-(difluoromethyl)-6-(1-methylpyrazol-4-yl)-3,4-dihydro-2H-quinolin-1-yl]-6,7-dihydro-4H-pyrazolo[4,3-c]pyridin-1-yl]-1-piperidyl]-1-piperidyl]-N-[4-(3-chloro-4-cyano-phenoxy)cyclohexyl]pyridazine-3-carboxamide] |
| 1 to 10 nM | 1 to 100 nM | CC(=O)N1CCc2c(c(N3CCCc4cc(-c5cscn5)c(C(F)F)cc43)nn2C2CCN([C@@H]3CCCN(c4ccc(C(=O)N[C@H]5CC[C@H](Oc6ccc(C#N)c(Cl)c6)CC5)nn4)C3)CC2)C1 [Compound 261, 6-[(3R)-3-[4-[5-acetyl-3-[7-(difluoromethyl)-6-thiazol-4-yl-3,4-dihydro-2H-quinolin-1-yl]-6,7-dihydro-4H-pyrazolo[4,3-c]pyridin-1-yl]-1-piperidyl]-1-piperidyl]-N-[4-(3-chloro-4-cyano-phenoxy)cyclohexyl]pyridazine-3-carboxamide] |
| < 1 nM | 0.1 to 1 nM | CC(=O)N1CCc2c(c(N3CCCc4cc(-c5cnn(C)c5)c(C(F)F)cc43)nn2[C@H]2CC[C@]3(CCN(C4CN(c5ccc(C(=O)N[C@H]6CC[C@H](Oc7ccc(C#N)c(Cl)c7)CC6)nn5)C4)C3)CC2)C1 [Compound 262, 6-[3-[8-[5-acetyl-3-[7-(difluoromethyl)-6-(1-methylpyrazol-4-yl)-3,4-dihydro-2H-quinolin-1-yl]-6,7-dihydro-4H-pyrazolo[4,3-c]pyridin-1-yl]-2-azaspiro[4.5]decan-2-yl]azetidin-1-yl]-N-[4-(3-chloro-4-cyano-phenoxy)cyclohexyl]pyridazine-3-carboxamide] |
| < 1 nM | ≤ 0.1 nM | CC(=O)N1CCc2c(c(N3CCCc4cc(-c5cnn(C)c5)c(C(F)F)cc43)nn2[C@H]2CC[C@@]3(CCN(C4CN(c5ccc(C(=O)N[C@H]6CC[C@H](Oc7ccc(C#N)c(Cl)c7)CC6)nn5)C4)C3)CC2)C1 [Compound 263, 6-[3-[8-[5-acetyl-3-[7-(difluoromethyl)-6-(1-methylpyrazol-4-yl)-3,4-dihydro-2H-quinolin-1-yl]-6,7-dihydro-4H-pyrazolo[4,3-c]pyridin-1-yl]-2-azaspiro[4.5]decan-2-yl]azetidin-1-yl]-N-[4-(3-chloro-4-cyano-phenoxy)cyclohexyl]pyridazine-3-carboxamide] |
| < 1 nM | 1 to 100 nM | CC(=O)N1CCc2c(c(N3CCCc4cc(-c5cnn(C)c5)c(C(F)F)cc43)nn2[C@H]2CC[C@@]3(CCCN(c4ccc(C(=O)N[C@H]5CC[C@H](Oc6ccc(C#N)c(Cl)c6)CC5)nn4)C3)CC2)C1 [Compound 267, 6-[9-[5-acetyl-3-[7-(difluoromethyl)-6-(1-methylpyrazol-4-yl)-3,4-dihydro-2H-quinolin-1-yl]-6,7-dihydro-4H-pyrazolo[4,3-c]pyridin-1-yl]-2-azaspiro[5.5]undecan-2-yl]-N-[4-(3-chloro-4-cyano-phenoxy)cyclohexyl]pyridazine-3-carboxamide] |
| < 1 nM | 0.1 to 1 nM | CC(=O)N1CCc2c(c(N3CCCc4cc(-c5cnn(C)c5)c(C(F)F)cc43)nn2[C@H]2CC[C@]3(CCCN(C4CN(c5ccc(C(=O)N[C@H]6CC[C@H](Oc7ccc(C#N)c(Cl)c7)CC6)nn5)C4)C3)CC2)C1 [Compound 268, 6-[3-[9-[5-acetyl-3-[7-(difluoromethyl)-6-(1-methylpyrazol-4-yl)-3,4-dihydro-2H-quinolin-1-yl]-6,7-dihydro-4Hpyrazolo[4,3-c]pyridin-1-yl]-2-azaspiro[5.5]undecan-2-yl]azetidin-1-yl]-N-[4-(3-chloro-4-cyanophenoxy)cyclohexyl]pyridazine-3-carboxamide] |
| 1 to 10 nM | 1 to 100 nM | COC(=O)N1c2ccc3c(nc(Cc4ccccc4)n3[C@@H]3CCC[C@H](OCCN4CCN(c5ccc(C(=O)N[C@H]6CC[C@H](Oc7ccc(C#N)c(Cl)c7)CC6)nn5)CC4)C3)c2CC[C@@H]1C [Compound 270, methyl (7S)-2-benzyl-3-[3-[2-[4-[6-[[4-(3-chloro-4-cyano-phenoxy)cyclohexyl]carbamoyl]pyridazin-3-yl]piperazin-1-yl]ethoxy]cyclohexyl]-7-methyl-8,9-dihydro-7H-imidazo[4,5-f]quinoline-6-carboxylate] |
| < 1 nM | ≤ 0.1 nM | CC(=O)N1CCc2c(c(-c3cccc4cc(-c5cnn(C)c5)ncc34)nn2C2CCN(CC3CCN(c4ccc(C(=O)N[C@H]5CC[C@H](Oc6ccc(C#N)c(Cl)c6)CC5)nn4)CC3(C)C)CC2)C1 (some centres unmarked) [Compound 280] |
| < 1 nM | ≤ 0.1 nM | CC(=O)N1CCc2c(c(N3CCCc4cc(-c5cnn(C)c5)c(C)cc43)nn2C2CCN(C[C@H]3[C@H](C)CN(c4ccc(C(=O)N[C@H]5CC[C@H](Oc6ccc(C#N)c(Cl)c6)CC5)nn4)C[C@@H]3C)CC2)C1 [Compound 281] |
| < 1 nM | 0.1 to 1 nM | CC(=O)N1CCc2c(c(N3CCCc4cc(-c5cnn(C)c5)c(C)cc43)nn2C2CCN(CC3CCN(c4ccc(C(=O)N[C@H]5CC[C@H](Oc6ccc(C#N)c(Cl)c6)CC5)nn4)CC3(C)C)CC2)C1 (some centres unmarked) [Compound 282, 6-[4-[[4-[5-acetyl-3-[7-methyl-6-(1-methylpyrazol-4-yl)-3,4-dihydro-2H-quinolin-1-yl]-6,7-dihydro-4H-pyrazolo[4,3-c]pyridin-1-yl]-1-piperidyl]methyl]-3,3-dimethyl-1-piperidyl]-N-[4-(3-chloro-4-cyano-phenoxy)cyclohexyl]pyridazine-3-carboxamide] |
| < 1 nM | ≤ 0.1 nM | CC(=O)N1CCc2c(c(N3CCCc4cc(C#N)c(C(F)F)cc43)nn2C2CCN(CC3CCN(c4ccc(C(=O)N[C@H]5CC[C@H](Oc6ccc(C#N)c(Cl)c6)CC5)nn4)CC3(C)C)CC2)C1 (some centres unmarked) [Compound 283, 6-[4-[[4-[5-acetyl-3-[6-cyano-7-(difluoromethyl)-3,4-dihydro-2H-quinolin-1-yl]-6,7-dihydro-4H-pyrazolo[4,3-c]pyridin-1-yl]-1-piperidyl]methyl]-3,3-dimethyl-1-piperidyl]-N-[4-(3-chloro-4-cyano-phenoxy)cyclohexyl]pyridazine-3-carboxamide] |
| < 1 nM | ≤ 0.1 nM | CC(=O)N1CCc2c(c(N3CCCc4cc(C#N)c(C(F)F)cc43)nn2C2CCN(C[C@H]3[C@H](C)CN(c4ccc(C(=O)N[C@H]5CC[C@H](Oc6ccc(C#N)c(Cl)c6)CC5)nn4)C[C@@H]3C)CC2)C1 [Compound 286, 6-[4-[[4-[5-acetyl-3-[6-cyano-7-(difluoromethyl)-3,4-dihydro-2H-quinolin-1-yl]-6,7-dihydro-4H-pyrazolo[4,3-c]pyridin-1-yl]-1-piperidyl]methyl]-3,5-dimethyl-1-piperidyl]-N-[4-(3-chloro-4-cyano-phenoxy)cyclohexyl]pyridazine-3-carboxamide] |
| < 1 nM | ≤ 0.1 nM | CC(=O)N1CCc2c(c(N3CCCc4cc(-c5cnn(C)c5)c(C(F)F)cc43)nn2C2CCN(C[C@H]3[C@H](C)CN(c4ccc(C(=O)N[C@H]5CC[C@H](Oc6ccc(C#N)c(Cl)c6C)CC5)nn4)C[C@@H]3C)CC2)C1 [Compound 287, 6-[4-[[4-[5-acetyl-3-[7-(difluoromethyl)-6-(1-methylpyrazol-4-yl)-3,4-dihydro-2H-quinolin-1-yl]-6,7-dihydro-4H-pyrazolo[4,3-c]pyridin-1-yl]-1-piperidyl]methyl]-3,5-dimethyl-1-piperidyl]-N-[4-(3-chloro-4-cyano-2-methyl-phenoxy)cyclohexyl]pyridazine-3-carboxamide] |
| < 1 nM | ≤ 0.1 nM | CC(=O)N1CCc2c(c(N3CCCc4cc(-c5cnn(C)c5)c(C(F)F)cc43)nn2C2CCN(C[C@H]3[C@H](C)CN(c4ccc(C(=O)N[C@H]5CC[C@H](Oc6ccc(C#N)c(C)c6C)CC5)nn4)C[C@@H]3C)CC2)C1 [Compound 288] |
| < 1 nM | ≤ 0.1 nM | CC(=O)N1CCc2c(c(N3CCCc4cc(-c5cnn(C)c5)c(C(F)F)cc43)nn2C2CCN(C[C@H]3[C@H](C)CN(c4ccc(C(=O)N[C@H]5CC[C@H](Oc6ccc(C#N)c(C)c6)CC5)nn4)C[C@@H]3C)CC2)C1 [Compound 289, 6-[4-[[4-[5-acetyl-3-[7-(difluoromethyl)-6-(1-methylpyrazol-4-yl)-3,4-dihydro-2H-quinolin-1-yl]-6,7-dihydro-4H-pyrazolo[4,3-c]pyridin-1-yl]-1-piperidyl]methyl]-3,5-dimethyl-1-piperidyl]-N-[4-(4-cyano-3-methyl-phenoxy)cyclohexyl]pyridazine-3-carboxamide] |
